Test: xn = mol fraction of the nth substance listed
Conditions: 101 kPa

NC(=O)CC[C@H](N)C(=O)O + CCCCCCCCCCCC[N+](C)(C)C.[Br-] + O
viscosity [mPa·s]
Conditions	293.15 K	298.15 K	303.15 K	308.15 K	313.15 K
x1 = 0.0001801, x2 = 0.0001083	1.02	0.908	0.822	0.738	0.667
x1 = 0.0001801, x2 = 0.0001624	1.024	0.911	0.824	0.74	0.67
x1 = 0.0001801, x2 = 0.0002165	1.028	0.913	0.825	0.742	0.672
x1 = 0.0001801, x2 = 0.0002706	1.036	0.914	0.827	0.744	0.674
x1 = 0.0001801, x2 = 0.0003247	1.045	0.917	0.828	0.745	0.676
x1 = 0.0001801, x2 = 0.0003788	1.051	0.921	0.832	0.747	0.677
x1 = 0.0001801, x2 = 0.0004328	1.057	0.926	0.835	0.749	0.68
x1 = 0.0001801, x2 = 0.0004869	1.062	0.932	0.837	0.754	0.683
x1 = 0.0001801, x2 = 0.000541	1.067	0.937	0.841	0.757	0.687
x1 = 0.0001802, x2 = 5.413e-05	1.018	0.905	0.819	0.735	0.666
x1 = 0.0008997, x2 = 0.0005438	1.057	0.91	0.821	0.751	0.678
x1 = 0.0008998, x2 = 0.0003807	1.045	0.898	0.81	0.739	0.668
x1 = 0.0008998, x2 = 0.0004351	1.051	0.902	0.814	0.743	0.67
x1 = 0.0008998, x2 = 0.0004894	1.053	0.906	0.818	0.747	0.674
x1 = 0.0008999, x2 = 0.000272	1.041	0.893	0.805	0.734	0.664
x1 = 0.0008999, x2 = 0.0003263	1.043	0.896	0.807	0.736	0.666
x1 = 0.0009, x2 = 0.0001632	1.036	0.889	0.801	0.729	0.66
x1 = 0.0009, x2 = 0.0002176	1.039	0.891	0.803	0.732	0.662
x1 = 0.0009001, x2 = 5.44e-05	1.033	0.884	0.797	0.725	0.655
x1 = 0.0009001, x2 = 0.0001088	1.035	0.886	0.799	0.727	0.657
x1 = 0.001798, x2 = 0.0001642	1.015	0.873	0.788	0.725	0.642
x1 = 0.001798, x2 = 0.000219	1.02	0.875	0.79	0.726	0.643
x1 = 0.001798, x2 = 0.0002737	1.025	0.878	0.792	0.728	0.645
x1 = 0.001798, x2 = 0.0003284	1.031	0.88	0.793	0.73	0.647
x1 = 0.001798, x2 = 0.0003831	1.034	0.885	0.797	0.732	0.648
x1 = 0.001798, x2 = 0.0004378	1.037	0.888	0.803	0.733	0.65
x1 = 0.001798, x2 = 0.0004925	1.039	0.892	0.807	0.736	0.653
x1 = 0.001798, x2 = 0.0005472	1.042	0.896	0.813	0.738	0.655
x1 = 0.001799, x2 = 5.475e-05	1.004	0.867	0.784	0.721	0.634
x1 = 0.001799, x2 = 0.0001095	1.01	0.87	0.785	0.722	0.639

Source: the CheMixHub ionic liquid set
